What was measured:
[1] = test system: H3K27ac levels in K562 cells; assay: Multiplexed barcoded ChIP-seq (Mint-ChIP), H3K27ac reads normalized to total H3 reads; assay type: cell-based, human; details: 48 hours treatment
Excerpt: (§1) FIG. 12 is a schematic showing an example method for quantitatively normalizing sequencing data results, in accordance with certain example embodiments. The control or drug treated cells are indexed, pooled, and then split for parallel ChIP assays. The ratio between H3K27me3 reads and H3 reads is used to compare global H3K27me3 levels between sample and normalized corresponding profiles.
(§2) FIG. 14 is a set of bar graphs showing global modification levels inferred from Western blot (top) or in accordance with certain example embodiments (bottom). The respective methods were applied in parallel to the same sample of […] cells treated for 48 hours with the indicated inhibitors. The data are shown as a mean±SD of n=3 independent experiments (symbols indicate values from independent experiments).
(§3) First, procedures for simultaneously lysing and digesting chromatin from small numbers of K562 cells were modified. […]
(§4) Algorithms were developed to process Mint-ChIP seq results. First, the seq reads are de-multiplexed by index #2 to yield separate read files for each ChIP assay. Each of these read files is then further de-multiplexed by index #1 (T7-adapter barcode) to yield separate files for each sample. […] More than 90% of reads were successfully assigned to one of the T7-adapter barcodes (FIG. 5). […]

[2] = test system: H3K27me3 levels in K562 cells; assay: Western blot of H3K27me3 levels in treated K562 cells (acid extracted histones); assay type: cell-based, human; details: 48 hr treatment
Excerpt: (§5) FIG. 13 is a western blot showing H3K27ac and H3K27me3 levels in K562 cells following treatment with the p300 inhibitor C646 or the EZH2 inhibitor […] (compared to a DMSO control). The total H3 is shown as loading control.
Data are typically normalized based on read numbers (“reads per million” or RPM). This presents complications when comparing between samples. To address this shortcoming, exogenous spike-in controls or semisynthetic standards were recently introduced (Bonhoure et al., 2014; Grzybowski et al., 2015; Orlando et al., 2014). The methods disclosed herein were assessed to determine whether the consistency of pooled sample processing could allow the capture of global modification levels without spike-in controls. […] After sequencing, the number of reads for H3K27ac and H3K27me3 were normalized to the number of reads for total H3.
It is noted the methods disclosed herein are preferential to open regions, as these are more sensitive to MNase digestion. This is evident in the relatively higher proportion of H3 reads that align to euchromatic regions (2-fold enrichment; compare to 1.2-fold enrichment in conventional ChIP-seq). […] To test this, Western blots to quantify H3K27me3 levels were used in MNase digested chromatin from K562 cells treated with GSK126.

[3] = test system: H3K27ac levels in K562 cells; assay: Western blot of H3K27ac levels in treated K562 cells; assay type: cell-based, human; details: 48 hr treatment, vs DMSO control
Excerpt: as §5
Data are typically normalized based on read numbers (“reads per million” or RPM). This presents complications when comparing between samples. To address this shortcoming, exogenous spike-in controls or semisynthetic standards were recently introduced (Bonhoure et al., 2014; Grzybowski et al., 2015; Orlando et al., 2014). The methods disclosed herein were assessed to determine whether the consistency of pooled sample processing could allow the capture of global modification levels without spike-in controls. To this end, an additional IP was included with antibody to total H3, which was used as a normalization factor for the modifications (FIG. 12). The approach for measuring global changes was tested using small molecule inhibitors. K562 cells were treated with the p300 inhibitor C646 or the EZH2 inhibitor GSK126 (Ferrari et al., 2013; McCabe et al., 2012a). Western blots confirmed that H3K27ac levels were reduced by the acetyltransferase inhibitor C646, […] (FIG. 13). […] After sequencing, the number of reads for H3K27ac and H3K27me3 were normalized to the number of reads for total H3.

[4] = test system: H3K27me3 levels in K562 cells; assay: Multiplexed barcoded ChIP-seq (Mint-ChIP), H3K27me3 reads normalized to total H3 reads; assay type: cell-based, human; details: 48 hours treatment
Excerpt: as §1, §2, §3, §4

[5] = test system: Toledo cells; assay: Viable cell counts following GSK126 treatment; assay type: cell-based; details: after 3 days
Protocol: (§6) FIG. 24 provides a set of bar plots depicting viable cell counts following 72 hour GSK126 treatment of Pfeiffer, SKM-1, and Toledo. The data are shown as mean±SD of technical triplicates×n=2 independent experiments (*p<0.05, **p<0.01, and ****p<0.0001).
(§7) The respective mutant lines were also treated with the EZH2 inhibitor GSK126, which reduced global H3K27me3 levels (Pfeiffer: 3.4-fold; SKM-1: 3.8-fold; and Toledo: 1.4-fold after 72 hr). Pfeiffer cells, which had the largest absolute decrease in H3K27me3, were the most sensitive to GSK126 treatment (Pfeiffer: 56±11% cell death after 3 days; SKM-1: 15±10%; and Toledo: 2±15%; FIG. 24) (McCabe et al., 2012a). H3K27me3 peaks were called in the naive and drug treated cell lines. Although treatment-associated changes in H3K27me3 are masked by conventional normalization, these changes are readily evident using the quantitative normalization inherent to the methods disclosed herein (FIG. 23). Thus, the methods disclosed herein can quantify differences in global chromatin landscapes of cancer cells representing different genotypes or drug treatments.

[6] = test system: Pfeiffer cells; assay: Viable cell counts following GSK126 treatment; assay type: cell-based; details: after 3 days
Protocol: as §6, §7

[7] = test system: SKM-1 cells; assay: Viable cell counts following GSK126 treatment; assay type: cell-based; details: SKM-1, after 3 days
Protocol: as §6, §7

[8] = test system: H3K27me3 levels in K562 cells; assay: Western blot of H3K27me3 in MNase digested chromatin; assay type: cell-based, human; details: 48 hr of treatment
Excerpt: It is noted the methods disclosed herein are preferential to open regions, as these are more sensitive to MNase digestion. This is evident in the relatively higher proportion of H3 reads that align to euchromatic regions (2-fold enrichment; compare to 1.2-fold enrichment in conventional ChIP-seq). These ratios are small relative to enrichments in ChIP-seq peaks, which range from 5- to 100-fold. However, they could account for increased sensitivity to early changes in H3K27me3 if these were also preferential to euchromatin. To test this, Western blots to quantify H3K27me3 levels were used in MNase digested chromatin from K562 cells treated with GSK126.

[9] = test system: H3K27me3 levels in Toledo cells; assay: Mint-ChIP global H3K27me3 levels (ratio to H3 reads) after GSK126; assay type: cell-based; details: after 72 hr
Protocol: (§8) FIG. 20 provides a set of heat maps comparing H3K27me3 (A) and H3K27ac (B) levels in different cell lines treated with GSK126, as quantified in accordance with certain example embodiments. The experiments were performed using two different MNase concentrations.
(§9) The methods disclosed herein were used to quantitatively compare H3K27me3 and H3K27ac landscapes in these three cell lines. First, the global modification levels based on the ratio of H3K27me3 (or H3K27ac) reads to H3 reads were quantified. H3K27me3 levels were 5.1-fold greater in Pfeiffer than the other cell lines, consistent with its EZH2 activating mutation (FIG. 20).
as §7

[10] = test system: H3K27me3 levels in SKM-1 cells; assay: as above; assay type: cell-based; details: SKM-1, after 72 hr
Protocol: as §8, §9, §7

[11] = test system: H3K27me3 levels in Pfeiffer cells; assay: as above; assay type: cell-based; details: after 72 hr
Protocol: as §8, §9, §7

[12] = test system: H3K4me3 in K562 cells; assay: Multiplexed barcoded ChIP-seq (Mint-ChIP), H3K4me3 profiles with quantitative normalization to total H3; assay type: cell-based, human; details: 96 hr treatment, vs DMSO
Excerpt: FIG. 17 is a set of graphs showing global H3K4me3 levels inferred in accordance with certain example embodiments. The data are shown as ±SD of four replicates n=3 experiments are shown.
FIG. 18 is a graph showing H3K4me3 profiles scaled by conventional or quantitative normalization.
FIG. 19 provides a composite plot depicting average H3K4me3 in K562 cells treated with DMSO or KDM5-C70 (A) with 10 kb regions surrounding the centers of 36,875 peaks that are shown; a bar blot showing the fraction of peaks within size windows (B); and a Venn diagram showing the number of peaks detected in K562 cells treated with DMSO or KDM5-70 (C). The data were generated in accordance with certain example embodiments.
(§10) (Labelle et al., 2014). The chromatin of K562 cells treated with DMSO or KDM5-C70 for 96 hr were barcoded and pooled. H3K4me3 and total H3 were then assayed. After sequencing, normalization of the number of H3K4me3 reads to the number of H3 reads reflected global modification levels and was consistent between experiments and also with Western blot analysis (FIG. 16 and FIG. 17). […] This effect was obscured when the data were subjected to conventional RPM normalization (FIG. 18).

[13] = test system: H3K4me3 levels in K562 cells; assay: Western blot of H3K4me3 levels in treated K562 cells; assay type: cell-based, human; details: 96 hr treatment, vs DMSO
Protocol: FIG. 16 are Western blots showing increased H3K4me3 levels in K562 cells following treatment with the demethylase inhibitor KDM5-C70. The total H3 is shown as loading control and n=3 experiments are shown.
as §10

SMILES: CC1=NN(c2ccc(C(=O)O)cc2)C(=O)/C1=C\c1ccc(-c2cc(C)c(C)cc2[N+](=O)[O-])o1 [C646]
- ratio between H3K27ac reads and total H3 reads [1]: decreased
- H3K27me3 levels (Western blot) [2]: did not detect significant changes
- H3K27ac levels (Western blot) [3]: reduced

SMILES: CC[C@H](C)n1cc(C)c2c(C(=O)NCc3c(C)cc(C)[nH]c3=O)cc(-c3ccc(N4CCNCC4)nc3)cc21 [GSK126]
- H3K27me3 levels (H3K27me3 reads normalized to total H3 reads) [4]: consistent reduction
- ratio between H3K27ac reads and total H3 reads [1]: increased
- H3K27me3 levels (Western blot) [2]: did not detect significant changes
- cell death [5]: 2±15%
- cell death [6]: 56±11%
- cell death [7]: 15±10%
- H3K27ac levels (Western blot) [3]: increased
- H3K27me3 levels (Western blot, MNase digested chromatin) [8]: Consistent reductions
- reduction of global H3K27me3 levels [9]: 1.4 fold
- reduction of global H3K27me3 levels [10]: 3.8 fold
- reduction of global H3K27me3 levels [11]: 3.4 fold

SMILES: CCOC(=O)c1ccnc(CNCC(=O)N(CC)CCN(C)C)c1 [KDM5-C70]
- H3K4me3 coverage, domains and peaks [12]: increases H3K4me3 coverage and widens existing domains, while also generating new H3K4me3 peaks
- H3K4me3 peak intensity (tracks scaled by inferred global levels) ([12]; quantitative normalization): increased peak intensity
- H3K4me3 levels (Western blot) [13]: increased
